Our source for the IC50 values is patent EP3345917A1, “ANTIPROTOZOAL COMPOUNDS” (Bacoba AG, priority 2017, dated 2018).

One data set deals with Plasmodium falciparum. Briefly: 3H-hypoxanthine incorporation assay against Plasmodium falciparum. The data set is classed as cell-based. The conditions noted are these: In vitro inhibition, read-out: P.falc NF5. How it is done: (§1) Tests were done in triplicate.
IC50 values were calculated by linear interpolation.

For data set [1], the system named is Trypanosoma brucei rhodesiense (STIB 900 strain). Briefly: Alamar Blue assay against Trypanosoma brucei rhodesiense grown in axenic medium. Conditions: In vitro inhibition, read-out: T.b.rhod. In kind it is cell-based. The essentials: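 Alamar Blue-based IC50 determination, in triplicate, on axenically grown STIB 900 trypanosomes. Melarsoprol included as reference.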
(In general: The colour change of resazurin is a common sign of viable cells or microbes.)

Data set [2] in a line: Cytotoxicity assay on L6-cells (Alamar Blue). The conditions noted are these: rat, Cytotox L6, Cytotoxicity against rat myoblast cells (L6).
Data set [3] has as its system Trypanosoma cruzi trypomastigote forms (Tulahuen strain). Briefly: Intracellular Trypanosoma cruzi assay in L6-cells, beta-galactosidase/CPRG readout. In kind it is cell-based. The conditions noted are these: In vitro inhibition, read-out: T.cruzi. The essentials:
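Readout was β-galactosidase cleavage of CPRG, read photometrically at 540 nm after 2–6 h colour development, giving IC50 values. Parasites: LacZ-expressing Tulahuen C2C4 strain grown in rat L6 myoblasts; run in triplicate.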

Data set [4] deals with intracellular Leishmania donovani (L.don. InMac). Briefly: Intracellular Leishmania donovani assay (L.don. InMac). In kind it is cell-based. Conditions: In vitro inhibition.
Description: as §1

Data set [5] relates to Axenically grown Leishmania donovani amastigotes (strain MHOM/ET/67/L82). As to the kind of experiment: Axenic Leishmania donovani amastigote resazurin assay. Conditions: In vitro inhibition, read-out: L.don. ax. In kind it is cell-based. The essentials:
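IC50 values derive from resazurin fluorescence (ex 536 nm, em 588 nm), expressed relative to the negative control, after 2-4 hours of plate development. Axenic amastigotes of strain MHOM/ET/67/L82 were used; each test run in triplicate.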

Non-standard residues stand in square brackets, D forms with d. Residues, ends and D or L forms follow the SMILES beside them. *: point of attachment. Acetyl(1-adamantyl) = O=C(CC12CC3CC(CC(C3)C1)C2)*; Hexenoyl(2E,4S-Me) = CC[C@H](C)/C=C/C(=O)*; Leu(3R-OH) = CC(C)[C@@H](O)[C@H](N)C(=O)O; NH((S)CH(Me)CH2NMe2) = C[C@@H](CN(C)C)N*; Gly(octyl) = CCCCCCCC[C@H](N)C(=O)O; X11 = C[C@@H]1CN(CCN*)C[C@H](C)O1; X4 = O=C(C1CCc2ccccc2C1)*; X8 = C[C@@H](CN1CCCCC1)N*; Hexanoyl = CCCCCC(=O)*; X13 = O=C(CCN1CCOCC1)*; Aib = CC(C)(N)C(=O)O; X6 = CCCN(CCC)CCN*; βAla = NCCC(=O)O

On to `CCCCCCCC[C@H](NC(=O)C1CCc2ccccc2C1)C(=O)N[C@@H](CC(C)C)C(=O)NC(C)(C)C(=O)N[C@@H](CC(C)C)C(=O)N[C@@H](CC(C)C)C(=O)NC(C)(C)C(=O)NC(C)(C)C(=O)NCCC(=O)N[C@@H](C)CN(C)C` (stereo partly drawn) [Compound 5944, (2S)-N-[(1S)-1-[(1-{[(1S)-1-{[(1S)-1-{[1-({1-[(2-{[(2S)-1-(dimethylamino)propan-2-yl]carbamoyl}ethyl)carbamoyl]-1-methylethyl}carbamoyl)-1-methylethyl]carbamoyl}-3-methylbutyl]carbamoyl}-3-methylbutyl]carbamoyl}-1-methylethyl)carbamoyl]-3-methylbutyl]-2-[(1,2,3,4-tetrahydronaphthalen-2-yl)formamido]decanamide] (X4-[Gly(octyl)]L[Aib]LL[Aib][Aib][βAla]-{NH((S)CH(Me)CH2NMe2)}), for which the IC50 in the data set on Plasmodium falciparum is 42500 nM; in data set [1], 0.1 nM; in data set [3], 5 nM; in data set [4], below 36.5 nM; in data set [5], 0.6 nM. Moreover, in data set [2], the IC50 at 70 h is 137 nM.

Consider `CCCCCCCC[C@H](NC(=O)[C@@H]1CCCN1C(=O)CCCCC)C(=O)N[C@@H](CC(C)C)C(=O)NC(C)(C)C(=O)N[C@@H](CC(C)C)C(=O)N[C@@H](CC(C)C)C(=O)NC(C)(C)C(=O)NC(C)(C)C(=O)NCCC(=O)NCCN(CCC)CCC` [Compound 5888, (2S)-N-[(1S)-1-[(1-{[(1S)-1-{[(1S)-1-{[1-({1-[(2-{[2-(dipropylamino)ethyl]carbamoyl}ethyl)carbamoyl]-1-methylethyl}carbamoyl)-1-methylethyl]carbamoyl}-3-methylbutyl]carbamoyl}-3-methylbutyl]carbamoyl}-1-methylethyl)carbamoyl]-3-methylbutyl]-2-{[(2S)-1-hexanoylpyrrolidin-2-yl]formamido}decanamide] (Hexanoyl-P[Gly(octyl)]L[Aib]LL[Aib][Aib][βAla]-X6), for which the IC50 in the data set with Plasmodium falciparum turned out to be 35900 nM; in data set [1], 18000 nM; in data set [3], 37.5 nM; in data set [4], 14.8 nM; in data set [5] it was 22700 nM. The IC50 at 70 h in data set [2] was determined as 446 nM.

`CCCCCCCC[C@H](NC(=O)[C@@H]1CCCN1C(=O)/C=C/[C@@H](C)CC)C(=O)N[C@H](C(=O)NC(C)(C)C(=O)N[C@@H](CC(C)C)C(=O)N[C@@H](CC(C)C)C(=O)NC(C)(C)C(=O)NC(C)(C)C(=O)NCCC(=O)N[C@@H](C)CN(C)C)[C@H](O)C(C)C` [Compound 5488, (2S)-N-[(1S,2R)-1-[(1-{[(1S)-1-{[(1S)-1-{[1-({1-[(2-{[(2S)-1-(dimethylamino)propan-2-yl]carbamoyl}ethyl)carbamoyl]-1-methylethyl}carbamoyl)-1-methylethyl]carbamoyl}-3-methylbutyl]carbamoyl}-3-methylbutyl]carbamoyl}-1-methylethyl)carbamoyl]-2-hydroxy-3-methylbutyl]-2-{[(2S)-1-[(2E,4S)-4-methylhex-2-enoyl]pyrrolidin-2-yl]formamido}decanamide] ({Hexenoyl(2E,4S-Me)}-P[Gly(octyl)][Leu(3R-OH)][Aib]LL[Aib][Aib][βAla]-{NH((S)CH(Me)CH2NMe2)}): the IC50 with Plasmodium falciparum was found to be 2.6 nM; in data set [1] it was 2 nM; in data set [3], 33.6 nM; in data set [4], 20.2 nM; in data set [5] it was 0.6 nM. Moreover, the IC50 at 70 h in data set [2] stood at 666 nM.

Regarding `CCCCCCCC[C@H](NC(=O)[C@@H]1CCCN1C(=O)CC12CC3CC(CC(C3)C1)C2)C(=O)N[C@@H](CC(C)C)C(=O)NC(C)(C)C(=O)N[C@@H](CC(C)C)C(=O)N[C@@H](CC(C)C)C(=O)NC(C)(C)C(=O)NC(C)(C)C(=O)NCCC(=O)N[C@@H](C)CN(C)C` [Compound 5771, (2S)-2-{[(2S)-1-[2-(adamantan-1-yl)acetyl]pyrrolidin-2-yl]formamido}-N-[(1S)-1-[(1-{[(1S)-1-{[(1S)-1-{[1-({1-[(2-{[(2S)-1-(dimethylamino)propan-2-yl]carbamoyl}ethyl)carbamoyl]-1-methylethyl}carbamoyl)-1-methylethyl]carbamoyl}-3-methylbutyl]carbamoyl}-3-methylbutyl]carbamoyl}-1-methylethyl)carbamoyl]-3-methylbutyl]decanamide] ({Acetyl(1-adamantyl)}-P[Gly(octyl)]L[Aib]LL[Aib][Aib][βAla]-{NH((S)CH(Me)CH2NMe2)}), the IC50 in the data set with Plasmodium falciparum was 0.8 nM; in data set [1], 6.9 nM; in data set [3], 42.1 nM; in data set [4], 58.6 nM; in data set [5], 0.8 nM. The same compound registered an IC50 at 70 h in data set [2] of 113 nM.

Consider `CCCCCCCC[C@H](NC(=O)[C@@H]1CCCN1C(=O)CCCCC)C(=O)N[C@@H](CC(C)C)C(=O)NC(C)(C)C(=O)N[C@@H](CC(C)C)C(=O)N[C@@H](CC(C)C)C(=O)NC(C)(C)C(=O)NC(C)(C)C(=O)NCCC(=O)NCCN1C[C@@H](C)O[C@@H](C)C1` [Compound 5648, (2S)-N-[(1S)-1-[(1-{[(1S)-1-{[(1S)-1-({1-[(1-{[2-({2-[(2R,6S)-2,6-dimethylmorpholin-4-yl]ethyl}carbamoyl)ethyl]carbamoyl}-1-methylethyl)carbamoyl]-1-methylethyl}carbamoyl)-3-methylbutyl]carbamoyl}-3-methylbutyl]carbamoyl}-1-methylethyl)carbamoyl]-3-methylbutyl]-2-{[(2S)-1-hexanoylpyrrolidin-2-yl]formamido}decanamide] (Hexanoyl-P[Gly(octyl)]L[Aib]LL[Aib][Aib][βAla]-X11), for which the IC50 worked out at 26.9 nM in the data set on Plasmodium falciparum; 54.7 nM in data set [1]; 229 nM in data set [3]; 186 nM in data set [4]; 0.5 nM in data set [5]. In data set [2], this compound gave an IC50 at 70 h of 2280 nM.

Turning to `CCCCCCCC[C@H](NC(=O)[C@@H]1CCCN1C(=O)CCCCC)C(=O)N[C@@H](CC(C)C)C(=O)NC(C)(C)C(=O)N[C@@H](CC(C)C)C(=O)N[C@@H](CC(C)C)C(=O)NC(C)(C)C(=O)NC(C)(C)C(=O)NCCC(=O)N[C@@H](C)CN(C)C` [Compound 5632, (2S)-N-[(1S)-1-[(1-{[(1S)-1-{[(1S)-1-{[1-({1-[(2-{[(2S)-1-(dimethylamino)propan-2-yl]carbamoyl}ethyl)carbamoyl]-1-methylethyl}carbamoyl)-1-methylethyl]carbamoyl}-3-methylbutyl]carbamoyl}-3-methylbutyl]carbamoyl}-1-methylethyl)carbamoyl]-3-methylbutyl]-2-{[(2S)-1-hexanoylpyrrolidin-2-yl]formamido}decanamide] (Hexanoyl-P[Gly(octyl)]L[Aib]LL[Aib][Aib][βAla]-{NH((S)CH(Me)CH2NMe2)}), the IC50 in the data set on Plasmodium falciparum came out at 0.1 nM; in data set [1], 0.4 nM; in data set [3] it was 10.2 nM; in data set [4], 52.1 nM; in data set [5] it was 1.3 nM. In data set [2], this compound registered an IC50 at 70 h of 162 nM.

With `CCCCCCCC[C@H](NC(=O)[C@@H]1CCCN1C(=O)CCCCC)C(=O)N[C@@H](CC(C)C)C(=O)NC(C)(C)C(=O)N[C@@H](CC(C)C)C(=O)N[C@@H](CC(C)C)C(=O)NC(C)(C)C(=O)NC(C)(C)C(=O)NCCC(=O)N[C@@H](C)CN1CCCCC1` [Compound 5886, (2S)-2-{[(2S)-1-hexanoylpyrrolidin-2-yl]formamido}-N-[(1S)-3-methyl-1-[(1-methyl-1-{[(1S)-3-methyl-1-{[(1S)-3-methyl-1-{[1-methyl-1-({1-methyl-1-[(2-{[(2S)-1-(piperidin-1-yl)propan-2-yl]carbamoyl}ethyl)carbamoyl]ethyl}carbamoyl)ethyl]carbamoyl}butyl]carbamoyl}butyl]carbamoyl}ethyl)carbamoyl]butyl]decanamide] (Hexanoyl-P[Gly(octyl)]L[Aib]LL[Aib][Aib][βAla]-X8), the IC50 in the data set on Plasmodium falciparum was determined as 36100 nM; in data set [1], 496 nM; in data set [3], 4260 nM; in data set [4], 602 nM; in data set [5] it was 190 nM. In data set [2], the IC50 at 70 h came to 938 nM.

`CCCCCCCC[C@H](NC(=O)[C@@H]1CCCN1C(=O)CCN1CCOCC1)C(=O)N[C@@H](CC(C)C)C(=O)NC(C)(C)C(=O)N[C@@H](CC(C)C)C(=O)N[C@@H](CC(C)C)C(=O)NC(C)(C)C(=O)NC(C)(C)C(=O)NCCC(=O)N[C@@H](C)CN(C)C` [Compound 5650, (2S)-N-[(1S)-1-[(1-{[(1S)-1-{[(1S)-1-{[1-({1-[(2-{[(2S)-1-(dimethylamino)propan-2-yl]carbamoyl}ethyl)carbamoyl]-1-methylethyl}carbamoyl)-1-methylethyl]carbamoyl}-3-methylbutyl]carbamoyl}-3-methylbutyl]carbamoyl}-1-methylethyl)carbamoyl]-3-methylbutyl]-2-{[(2S)-1-[3-(morpholin-4-yl)propanoyl]pyrrolidin-2-yl]formamido}decanamide] (X13-P[Gly(octyl)]L[Aib]LL[Aib][Aib][βAla]-{NH((S)CH(Me)CH2NMe2)}): the IC50 with Plasmodium falciparum amounted to 11.1 nM; in data set [1], 15.3 nM; in data set [3], 133 nM; in data set [4], 188 nM; in data set [5], 105 nM. Further, in data set [2], the IC50 at 70 h turned out to be 492 nM.
